According to US20220348549A1 (Hoffmann-La Roche Inc., priority 2019, published 2022):

What follows are molecules tested on HBV cccDNA (HBeAg level in HepDES19 cells) (assay: Engineered HepDES19 primary screen assay (HBeAg ELISA as surrogate marker for cccDNA)). Conditions: Hepatitis B virus, HepDES19, 120 h.
Format: cell-based
Source text: The assay was employed to screen for novel HBV cccDNA inhibitors. HepDES19 is a HBV cccDNA-producing cell line. In this cell line, HBeAg in the cell culture supernatant as surrogate marker, as HBeAg production depends on cccDNA level and activity. HepDES19 is an engineered cell line which contains a 1.1 unit length HBV genome, and pgRNA transcription from the transgene is controlled by Tetracycline (Tet). In the absence of Tet, pgRNA transcription will be induced, but HBV e antigen (HBeAg) could not be produced from this pgRNA due to very short leader sequence before the HBeAg start codon and the start codon is disrupted. Only after cccDNA is formed, the missing leader sequence and start codon mutation would be restored from the 3′-terminal redundancy of pgRNA, and then HBeAg could be synthesized. Therefore, HBeAg could be used as a surrogate marker for cccDNA (Zhou, T. et al., Antiviral Res. (2006), 72(2), 116-124; Guo, H. et al., J. Virol. (2007), 81(22), 12472-12484).
HepDES19 cells were seeded at 2×10^6 cells per T150 flask and cultured with the culture medium (Dulbecco's Modified Eagle Medium: Nutrient Mixture F-12 [DMEM-F12, Gibco Cat. 11320-82], 10% Fetal Bovine Serum [FBS, Clontech Cat. 631101], 0.1 mM Non-Essential Amino Acids Solution [NEAA, Gibco Cat. 11140-050], 50 μg/mL Penicillin-Streptomycin [PS, Invitrogen Cat. 15140-163], 500 μg/mL Geneticin [G418, Invitrogen Cat. 10131-027]) containing 3 μg/mL Tet (Sigma, Cat. 87128) for 5 days. Cells were then seeded at 4×10^6 cells per T150 in the same culture medium as described above in the absence of Tet for 8 days. Cells were then harvested and frozen at density of 2×10^6 cells per mL. For compound testing, the frozen cells were thawed and seeded into 96-well plates at a density of 6×10^4 cells per well. At 24 hrs after seeding, half log serial dilutions of compounds made with Dimethyl sulfoxide (DMSO, Sigma, Cat. D2650) were further diluted with the same culture medium as described above before they were added to the cells to reach desired final compound concentrations and 1% DMSO concentration. Plates were then incubated at 37° C. for another 5 days before measurement of HBeAg level and cell viability. Intracellular HBeAg level were measured with enzyme-linked immunosorbent assay (ELISA) kit (Shanghai Kehua Diagnostic Medical Products Co., Ltd). Cell viability was assessed using Cell Counting Kit-8 (Donjindo, Cat. CK04-20). IC50 values were derived from the dose-response curve using 4 parameter logistic curve fit method.
The compounds of the present invention were tested for their capacity to inhibit extracellular HBeAg level as described herein.
`O=C(O)c1nc(-c2ccc(Br)cc2)nc2cc(C(F)(F)F)ccc12` [Example 43, 2-(4-Bromophenyl)-7-(trifluoromethyl)quinazoline-4-carboxylic acid] was tested, and the IC50 was 12.9 µM.
Work on `Cc1nc(-c2ccc(Br)cc2)nc2c(Cl)cccc12` [Example 40, 2-(4-Bromophenyl)-8-chloro-4-methyl-quinazoline] yielded an IC50 of 0.082 µM.
In the case of `COC(=O)C1CCN(c2ccc(-c3ncc4cccc(Cl)c4n3)cn2)CC1` [Example 29, Methyl 1-(5-(8-chloroquinazolin-2-yl)pyridin-2-yl)piperidine-4-carboxylate], the IC50 is reported as 1.23 µM.
`FC(F)(F)c1ccc2c(CN3CCOCC3)nc(-c3cccc(Br)c3)nc2c1` [Example 18, 4-((2-(3-Bromophenyl)-7-(trifluoromethyl)quinazolin-4-yl)methyl)morpholine] gave an IC50 of 1.93 µM.
In the case of `Clc1cccc2cnc(-c3cccc(Br)c3)nc12` [Example 2, 2-(3-Bromophenyl)-8-chloroquinazoline], the IC50 is reported as 0.36 µM.
`Cc1nc(-c2ccc(OCc3cccc(C(=O)O)c3)cc2)nc2c(Cl)cccc12` [Example 8, 3-((4-(8-Chloro-4-methylquinazolin-2-yl)phenoxy)methyl)benzoic acid] showed an IC50 of 0.46 µM.
`O=C(O)[C@H]1C[C@@H](OCCOc2ccc(-c3ncc4cccc(Cl)c4n3)cc2)C1` [Example 42, cis-3-[2-[4-(8-Chloroquinazolin-2-yl)phenoxy]ethoxy]cyclobutanecarboxylic acid] gave an IC50 of 16.9 µM.
With `COc1ccc(-c2nc(C(=O)O)c3cccc(Cl)c3n2)cc1` [Example 33, 8-Chloro-2-(4-methoxyphenyl)quinazoline-4-carboxylic acid] the IC50 was 7.75 µM.
Molecule `Oc1ccc(-c2ncc3cccc(Cl)c3n2)cn1` [Example 25, 5-(8-Chloroquinazolin-2-yl)pyridin-2-ol] has an IC50 of 4.68 µM.
Molecule `Cc1nc(-c2ccc(Cl)nc2)nc2c(Cl)cccc12` [Example 23, 8-Chloro-2-(6-chloropyridin-3-yl)-4-methylquinazoline] has an IC50 of 0.22 µM.
Work on `COC(=O)c1cccc(COc2ccc(-c3ncc4cccc(Cl)c4n3)cc2)c1` [Example 6, Methyl 3-((4-(8-chloroquinazolin-2-yl)phenoxy)methyl)benzoate] yielded an IC50 of 6.16 µM.
Molecule `O=C(O)C1CCN(c2ccc(-c3ncc4cccc(Cl)c4n3)cn2)CC1` [Example 30, 1-(5-(8-chloroquinazolin-2-yl)pyridin-2-yl)piperidine-4-carboxylic acid] has an IC50 of 7.63 µM.
`O=C(O)c1nc(-c2ccc(OCCO[C@H]3C[C@@H](C(=O)O)C3)nc2)nc2c(Cl)cccc12` [Example 50, cis-2-[6-[2-(3-Carboxycyclobutoxy)ethoxy]-3-pyridyl]-8-chloro-quinazoline-4-carboxylic acid] gave an IC50 of 15 µM.
